US7910305B2, “Methods for screening for compounds that modulate insulin promoter activity” (The Burnham Institute for Medical Research, priority 2005, dated 2011)
Peptide text beside a SMILES is read from it. * marks the point of attachment. Cbz = O=C(OCc1ccccc1)*

Key:
[1] = system: human insulin gene (hINS) promoter-eGFP reporter in MIN6 mouse insulinoma cells; assay: insulin promoter-destabilized eGFP reporter fluorescence in engineered MIN6 cells; format: cell-based; conditions: 384-well plates, three-fold titration series, imaged 48 hours after compound addition
Text: We have developed a screen for small molecule compounds that modulate insulin promoter activity. Identifying these compounds and eventually their targets should provide insights into the signaling pathways that control insulin expression. The assay is based upon a mouse insulinoma, MIN6, that normally expresses insulin mRNA. This cell was engineered to stably contain two cassettes that use a fluorescent reporter protein to monitor insulin promoter activity and a housekeeping gene activity. The primary assay is to detect compounds that alter expression of an insulin promoter-destabilized eGFP reporter cassette in mouse insulinoma (MIN6) cells relative to that of a housekeeping gene, heat shock protein 68, the promoter of which is used in a second cassette to direct expression of destabilized dsRED2. […]
Engineering of MIN6 for Image-Based, High Throughput Screening. […] Viral supernatants harvested at 24 to 72 hours were 0.45 μm filtered and concentrated 100- to 200-fold by ultrafiltration using Centricon Plus-80 units (Millipore, Bedford, Mass., USA), yielding titers of approximately 10^9 transducing units (TU) per milliliter 5, determined by transduction of 293T cells with serial dilutions of the pRRL.SIN-18.cPPT.hPGK-EGFP.WPRE viral supernatant and FACS analysis to determine the percentage of EGFP-expressing cells. […]

[2] = system: human insulin promoter-eGFP reporter in T6PN/E47MER cells; assay: insulin promoter-eGFP reporter fluorescence in T6PN/E47MER cells; format: cell-based; conditions: T6PN/E47MER cells infected with insulin promoter-eGFP lentiviral vector
Text: (§1) To increase the level of insulin expression, TRM-6 cells expressing PDX-1 and NeuroD1 (T6PN cells) (Follenzi et al., Nature Genet. 25:217-222, 2000) were infected with an E47^MER retroviral vector and selected by FACS. E47^MER consists of the class I bHLH factor E47 which is a potent insulin transactivator fused to a mutated estrogen receptor that renders it functional only in the presence of tamoxifen. […] To determine whether the effects of E47 were limited to insulin expression or had more general effects on beta-cell differentiation, a panel of other beta-cell genes was examined. […] Thus, T6PN/E47^MER cells express a substantial number of important beta-cell genes, making them an appropriate target for the insulin promoter screens described herein.
Assay Protocol. The following is a detailed assay protocol for the primary assay, i.e., first assay performed in a testing scheme to identify biologically active chemical entities in a screening mode: […]

insulin mRNA = assay: RT-PCR for endogenous insulin mRNA in T6PN/E47MER cells; format: cell-based, human
Text: (A) Insulin mRNA is barely detectable by non-quantitative RT-PCR in the absence of tamoxifen in two biological replicates of T6PN/E47^MER cells.
Cells were exposed to 5 micromolar compound and also had 0.5 micromolar tamoxifen. […] […] Both GFP and insulin mRNA levels are normalized for GAPDH mRNA to rule out nonspecific effects of the compounds on transcription.
as §1
Second Confirmatory Assay. Compounds that passed the primary confirmatory assay were passed on for further testing in a secondary confirmatory assay. This consisted of RT-PCR of GFP and endogenous insulin mRNA (FIG. 7). Both GFP and endogenous insulin RT-PCR assays are performed because of the possibility that a compound may affect the 1.4 kb insulin promoter transgene but not the endogenous insulin promoter, which may be under more complex control.

myosin heavy chain gene = assay: RT-PCR for myosin heavy chain gene in T6PN/E47MER cells; format: cell-based, human

| SMILES | eGFP fluorescence [1] | eGFP induction [2] | insulin mRNA (RT-PCR), positive control (insulin mRNA; 4 micromolar tamoxifen control) | insulin mRNA by non-quantitative RT-PCR (insulin mRNA; T6PN/E47MER cells with versus without tamoxifen, two biological replicates) | insulin mRNA by quantitative real-time RT-PCR (insulin mRNA; T6PN/E47MER cells, E47 activity induced by tamoxifen, two biological replicates) | induction of insulin gene expression (insulin mRNA; induction of E47 activity (E47MER functional only with tamoxifen) in T6PN cells) | myosin heavy chain gene induction (myosin heavy chain gene) |
| --- | --- | --- | --- | --- | --- | --- | --- |
| C[C@@H]1C[C@@H]([C@H](O)CC2CC(=O)NC(=O)C2)C(=O)[C@@H](C)C1 [cyclohexamide] | decrease in fluorescence intensity |  |  |  |  |  |  |
| CC/C(=C(\c1ccccc1)c1ccc(OCCN(C)C)cc1)c1ccccc1 [tamoxifen] |  | High levels of eGFP | maximum induction of insulin mRNA | strongly induced | dramatic upregulation of insulin mRNA | 100 fold | not induced |
| CC(C)C[C@@H](C=O)NC(=O)[C@H](CC(C)C)NC(=O)[C@H](CC(C)C)NC(=O)OCc1ccccc1 [MG132] (Cbz-Leu-Leu-Leu-aldehyde) | dose-dependent increase in eGFP fluorescence |  |  |  |  |  |  |
